Active and inactive are the calls of the source. The rule behind the calls is not given here.
Legend:
Mesenchymal stem cell = assay: Induction of adipogenesis in human bone marrow-derived mesenchymal stem cells assessed as increase in the production of adiponectin measured on day 7 after 48 hrs by ELISA; format: functional, cell-based
[1] = target: T1, Peroxisome proliferator-activated receptor delta (Homo sapiens) (UniProt Q03181); assay: Displacement of Fluormone-Pan-PPAR Green from human GST-tagged PPARdelta LBD by TR-FRET assay
T1 sequence (whole entry): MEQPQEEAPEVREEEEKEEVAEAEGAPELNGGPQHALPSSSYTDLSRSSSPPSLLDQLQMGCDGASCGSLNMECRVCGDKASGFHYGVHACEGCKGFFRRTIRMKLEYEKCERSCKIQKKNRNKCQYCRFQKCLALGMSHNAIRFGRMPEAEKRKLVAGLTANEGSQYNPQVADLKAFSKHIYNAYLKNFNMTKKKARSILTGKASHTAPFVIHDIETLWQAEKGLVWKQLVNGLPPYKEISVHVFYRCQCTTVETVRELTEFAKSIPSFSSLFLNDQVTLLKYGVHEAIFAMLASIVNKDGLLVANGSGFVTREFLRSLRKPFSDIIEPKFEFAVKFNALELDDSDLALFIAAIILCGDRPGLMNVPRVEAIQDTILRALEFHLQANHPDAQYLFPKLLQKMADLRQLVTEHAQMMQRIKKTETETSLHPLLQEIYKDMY

[2] = target: T2, Peroxisome proliferator-activated receptor gamma (Homo sapiens) (UniProt P37231); assay: Transactivation of human PPARgamma expressed in African green monkey CV1 cells at 10 uM by luciferase reporter gene assay relative to control; format: cell-based
T2 sequence (whole entry): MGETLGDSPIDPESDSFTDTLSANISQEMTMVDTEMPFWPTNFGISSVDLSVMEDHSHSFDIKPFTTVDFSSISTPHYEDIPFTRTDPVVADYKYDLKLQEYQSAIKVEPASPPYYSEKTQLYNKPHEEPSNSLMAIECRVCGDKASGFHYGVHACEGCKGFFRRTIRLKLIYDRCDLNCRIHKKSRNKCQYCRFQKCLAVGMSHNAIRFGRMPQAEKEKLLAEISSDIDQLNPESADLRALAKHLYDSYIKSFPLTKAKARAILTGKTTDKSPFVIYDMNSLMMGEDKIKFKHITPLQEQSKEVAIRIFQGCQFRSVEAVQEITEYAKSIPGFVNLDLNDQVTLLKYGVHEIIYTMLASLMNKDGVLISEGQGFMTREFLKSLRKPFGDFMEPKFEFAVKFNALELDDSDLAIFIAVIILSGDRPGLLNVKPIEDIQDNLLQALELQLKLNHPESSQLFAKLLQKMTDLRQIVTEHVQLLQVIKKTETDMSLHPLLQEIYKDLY

[3] = target: Cyclin-dependent kinase 5/CDK5 activator 1 (Homo sapiens) (UniProt Q00535+Q15078); assay: Inhibition of human CDK5/p25 up to 20 uM using histone H1 as substrate after 40 mins in presence of [gamma32P]ATP by scintillation counting; format: protein-complex assay
[4] = target: T1, Peroxisome proliferator-activated receptor delta (Homo sapiens); assay: Displacement of Fluormone-Pan-PPAR Green from human GST-tagged PPARdelta LBD at 20 uM by TR-FRET assay relative to control
[5] = target: T3, Peroxisome proliferator-activated receptor alpha (Homo sapiens) (UniProt Q07869); assay: Displacement of Fluormone-Pan-PPAR Green from human GST-tagged PPARalpha LBD at 20 uM by TR-FRET assay relative to control
T3 sequence (whole entry): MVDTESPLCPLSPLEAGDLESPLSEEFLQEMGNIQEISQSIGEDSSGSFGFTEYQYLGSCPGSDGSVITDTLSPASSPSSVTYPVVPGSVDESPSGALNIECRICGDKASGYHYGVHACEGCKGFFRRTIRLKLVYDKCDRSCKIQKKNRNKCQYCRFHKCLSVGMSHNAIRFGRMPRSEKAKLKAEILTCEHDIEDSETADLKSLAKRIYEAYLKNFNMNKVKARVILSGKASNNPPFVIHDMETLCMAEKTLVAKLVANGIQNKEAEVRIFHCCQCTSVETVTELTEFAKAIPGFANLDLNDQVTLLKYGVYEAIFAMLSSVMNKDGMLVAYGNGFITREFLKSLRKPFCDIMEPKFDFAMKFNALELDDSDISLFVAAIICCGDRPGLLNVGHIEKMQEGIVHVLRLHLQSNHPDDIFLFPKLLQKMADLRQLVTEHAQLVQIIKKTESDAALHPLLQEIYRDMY

[6] = target: T4, Oxysterols receptor LXR-beta (Homo sapiens) (UniProt P55055); assay: Binding affinity to human LXRbeta at 4 uM by TR-FRET assay
T4 sequence (whole entry): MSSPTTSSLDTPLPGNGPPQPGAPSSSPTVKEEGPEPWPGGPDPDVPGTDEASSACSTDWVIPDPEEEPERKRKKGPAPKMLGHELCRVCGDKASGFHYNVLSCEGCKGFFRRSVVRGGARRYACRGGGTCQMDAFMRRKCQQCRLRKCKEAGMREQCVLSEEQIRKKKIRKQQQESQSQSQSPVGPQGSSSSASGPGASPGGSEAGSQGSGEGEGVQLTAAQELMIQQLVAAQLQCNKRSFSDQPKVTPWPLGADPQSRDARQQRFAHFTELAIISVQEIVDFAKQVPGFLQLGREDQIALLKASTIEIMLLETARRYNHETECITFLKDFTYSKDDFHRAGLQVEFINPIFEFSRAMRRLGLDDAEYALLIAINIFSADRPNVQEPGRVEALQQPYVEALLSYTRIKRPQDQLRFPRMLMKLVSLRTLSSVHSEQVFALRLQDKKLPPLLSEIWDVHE

Chain of Cyclin-dependent kinase 5/CDK5 activator 1 (Homo sapiens) (Q00535 whole entry, the tested form may be a part): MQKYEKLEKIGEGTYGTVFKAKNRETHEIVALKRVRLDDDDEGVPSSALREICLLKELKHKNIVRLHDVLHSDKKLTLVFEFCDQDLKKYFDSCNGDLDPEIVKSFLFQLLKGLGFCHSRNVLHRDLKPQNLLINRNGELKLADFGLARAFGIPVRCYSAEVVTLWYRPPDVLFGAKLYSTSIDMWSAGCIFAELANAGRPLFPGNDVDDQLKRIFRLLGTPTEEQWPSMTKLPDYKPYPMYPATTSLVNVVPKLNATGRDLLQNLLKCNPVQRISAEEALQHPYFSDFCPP
Chain of Cyclin-dependent kinase 5/CDK5 activator 1 (Homo sapiens) (Q15078 99-307 partner limits assumed): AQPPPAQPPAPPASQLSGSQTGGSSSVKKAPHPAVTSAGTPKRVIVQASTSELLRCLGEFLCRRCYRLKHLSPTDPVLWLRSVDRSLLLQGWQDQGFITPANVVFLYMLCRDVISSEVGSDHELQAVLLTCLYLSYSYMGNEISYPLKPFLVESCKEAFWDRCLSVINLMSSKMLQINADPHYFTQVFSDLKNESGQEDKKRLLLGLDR

CNC(=O)[C@H]1O[C@@H](n2cnc3c(NCc4cccc(I)c4)ncnc32)[C@H](O)[C@@H]1O [IB-MECA]
Activity (Mesenchymal stem cell): Dose-dependent effect | inhibition [1]: Dose-dependent effect | Activity [2]: 29.9% | inhibition [3]: inactive | inhibition [4]: 48.3% | inhibition [5]: 16% | Activity [6]: inactive
